Experimental data taken from patent EP4653450A1 (priority 2023, dated 2024).
“And” between values parts separate entries of the source, which are not always exact repeats. Equal values may be shown once.

Experiments:
SARS-CoV-2 Delta strain = details: mouse, in vivo
[1] = system: 47 safety-related targets
[2] = cynomolgus monkey, in vivo
[3] = system: SARS-CoV-2 Delta strain (B.1.617.2); assay: microbe, parasite or virus in culture; details: Severe acute respiratory syndrome coronavirus 2, Vero C1008
[4] = system: SARS-CoV-2 Omicron strain (B.1.1.529); assay: microbe, parasite or virus in culture; details: Severe acute respiratory syndrome coronavirus 2, Vero C1008

## CC(C)(C)C(NC(=O)C(F)(F)F)C(=O)N1CC2(CC1C(=O)NC(C#N)CC1CCNC1=O)SCCS2 (stereo not shown) [Compound of formula (I)]
SARS-CoV-2 Delta strain
  Brain tissue (log10 copies/mg) Day 2: 1.04±0.24 log10 copies/mg and 0.77±0.20 log10 copies/mg
  body weight: not significantly reduced
  effect on viral titer in the lungs: sustained inhibitory effect
  histopathological analysis of the lungs: significantly ameliorated lung damage
  reduction of viral copy number in the lungs: 2.4 log10 copies/g
  reduction of viral titer in the lungs (plaque assay): more than 3 log10 PFU/g
  viral titer in the lungs (plaque assay): the titer was not detected
  virus titer in the brains: no virus titer was detected
[1]
  EC50: > 100000 nM
Human plasma protein
  Free rate (F%) Replicate 1: 48.71%
  Free rate (F%) Replicate 2: 44.55%
[2]
  arrhythmia: no test sample-related arrhythmia was observed
  cardiovascular system changes: no test sample-related cardiovascular system changes were observed
  changes in ECG parameters or blood pressure: no test sample-related changes in ECG parameters or blood pressure were observed
[3]
  IC50: 40 nM
[4]
  IC50: 120 nM
